Measurements published in PubChem BioAssay (NCI).
“And” between values parts separate entries of the source, which are not always exact repeats. Equal values may be shown once.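 1) Cells in 96-well plates. 2) Compound, 48 h, 5 concentrations. 3) Linear interpolation between surrounding doses. 4) Unreached endpoint = highest concentration. Here, GI50 denotes the concentration required for 50% inhibition of growth. TGI is the concentration that stops growth completely.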

How the values were obtained:
Assay in all cases: NCI anticancer screen, dose series, 48 h
HL-60(TB) leukemia = tested on: HL-60(TB) leukemia
U251 CNS = tested on: U251 CNS
SK-OV-3 ovarian = tested on: SK-OV-3 ovarian
CCRF-CEM leukemia = tested on: CCRF-CEM leukemia
OVCAR-8 ovarian = tested on: OVCAR-8 ovarian
HCT-15 colon = tested on: HCT-15 colon
TK-10 renal = tested on: TK-10 renal
MDA-MB-435 = tested on: MDA-MB-435
RXF 393 renal = tested on: RXF 393 renal
HCC-2998 colon = tested on: HCC-2998 colon

SMILES	TGI (HL-60(TB) leukemia) [µM]	TGI (U251 CNS)	TGI (SK-OV-3 ovarian)	TGI (CCRF-CEM leukemia)	TGI (OVCAR-8 ovarian)	TGI (HCT-15 colon)	TGI (TK-10 renal)	GI50 (MDA-MB-435)	TGI (MDA-MB-435)	GI50 (HL-60(TB) leukemia)	GI50 (U251 CNS)	GI50 (RXF 393 renal)	TGI (RXF 393 renal)	GI50 (SK-OV-3 ovarian)	GI50 (CCRF-CEM leukemia)	GI50 (OVCAR-8 ovarian)	GI50 (HCT-15 colon)	GI50 (HCC-2998 colon)	TGI (HCC-2998 colon)	GI50 (TK-10 renal)
Cc1ccc(/C=C2\CCCCC2=O)cc1	48.3	> 100 µM	> 100 µM	88.8 µM	> 100 µM	> 100 µM	> 100 µM													
Cc1c(C(=O)Nc2ccc(N3C[C@@H](C)O[C@@H](C)C3)nc2)cccc1-c1ccc(OC(F)(F)F)cc1	> 100	28 µM and 38.4 µM	30 µM and 34.5 µM	> 100 µM	30.9 µM and 46.3 µM	38.8 µM and 55.8 µM	21.2 µM and 30.3 µM	7.29 µM and 5.89 µM	49.2 µM and 38 µM	7.25 µM and 22.7 µM	8.6 µM and 12 µM	12.3 µM and 13.7 µM	29.2 µM and 32.1 µM	11.4 µM and 15.2 µM	9.77 µM and 50 µM	7.9 µM and 10.8 µM	12.2 µM and 16.9 µM	12.4 µM and 15.5 µM	36.1 µM and 42.3 µM	5.48 µM and 9.98 µM
Cc1cc(I)cc(CN(C)CCCN2CCC(C)CC2)c1O	31.6	29.8 µM	31.1 µM		33.5 µM	26.7 µM	29.2 µM	11.6 µM	25 µM	12.5 µM	15.2 µM	10.5 µM	23.5 µM	15.9 µM		16.7 µM	12.1 µM	12.4 µM	25.4 µM	14.7 µM
c1ccc2c(N=NSc3ncnc4nc[nH]c34)c3ccccc3nc2c1	6.96	10.9 µM	14.2 µM	6.66 µM	2.96 µM	10.2 µM	6.37 µM	1.97 µM	6.12 µM	3.12 µM	1.12 µM	0.967 µM	2.87 µM	1.38 µM	1.31 µM	1.5 µM	1.15 µM	1.49 µM	3.77 µM	1.77 µM
Clc1cnc(Nc2ccc(OCCN3CCCC3)cc2)nc1NCc1ccco1	5.01	11.4 µM	34.1 µM	9.5 µM	13.7 µM	11.8 µM	11.8 µM	2.73 µM	11.5 µM	1.03 µM	2.81 µM	1.25 µM	3.24 µM	3.62 µM	2.54 µM	3.54 µM	2.72 µM	2.92 µM	9.59 µM	2.28 µM
CN1C(=O)N(C)C2C1NC(=S)N2/N=C/C=C/c1ccccc1[N+](=O)[O-] (stereo unspecified)	2.8		> 100 µM	> 100 µM	> 100 µM	> 100 µM		0.271 µM	0.997 µM	0.414 µM		2.42 µM	> 100 µM	1.18 µM	0.822 µM	3.11 µM	0.889 µM	2.56 µM	> 100 µM	
O=[N+]([O-])c1ccc2c(c1)C(N1CCN(CCO)CC1)Cc1ccc(F)cc1S2 (stereo unspecified)	23.1	24.3 µM	31 µM	16.1 µM	25.5 µM	19 µM	27.8 µM						4.73 µM						8.83 µM	
NC1CC(=O)c2c(-c3cccs3)sc(-c3cccs3)c21 (stereo unspecified)	61.1	34 µM	> 100 µM	> 100 µM	> 100 µM	22.4 µM	40.3 µM	38.8 µM	> 100 µM	20.5 µM	16.7 µM	59.1 µM	> 100 µM	> 100 µM	3.89 µM	30.2 µM	3.04 µM			16.3 µM
COC(=O)C1=C(C)NC(=S)NC1c1ccc(N(CCCl)CCCl)cc1Cl (stereo unspecified)	> 100	> 100 µM	> 100 µM	> 32.7 µM	> 100 µM	> 66.5 µM	98.6 µM		37.4 µM				> 81.2 µM							
Nc1nc(N)c2c(ccc3c2ccn3Cc2cccc([N+](=O)[O-])c2)n1	2.5	1.72 µM	2.01 µM and 2.11 µM	2.03 µM and 1.07 µM	1.7 µM	1.58 µM and 1.7 µM	2.67 µM	0.0217 µM	2.4 µM and 2.59 µM	0.00918 µM and 0.0476 µM	0.018 µM			0.0888 µM and 0.54 µM	0.0221 µM and 0.0126 µM	0.00901 µM	0.0126 µM	0.049 µM	1.56 µM	1.14 µM
CC(C)N1CC2CC(CN(C(=O)c3ccc(Cl)cc3)C2)C1	> 100	> 100 µM	> 100 µM	> 100 µM	> 100 µM	> 100 µM	> 100 µM						> 100 µM							
CCCCCCCCCC1CC(=O)OC2=C1C(=O)CCC2 (stereo unspecified)	> 100	> 100 µM	> 100 µM	> 100 µM	> 100 µM		> 100 µM						> 100 µM						> 100 µM	
COc1ccc(N=NC2=C(O)CCC2=O)cc1	> 100	> 100 µM	> 100 µM	> 100 µM	> 100 µM	> 100 µM	> 100 µM						> 100 µM						> 100 µM	
CCCCCCC(=O)NC1=C(N2CC2)C(=O)C(NC(=O)CCCCCC)=C(N2CC2)C1=O	> 100	> 100 µM	> 100 µM	> 100 µM			72.9 µM	1.56 µM	3.11 µM	3.17 µM	2.88 µM	16.3 µM	79.5 µM	13 µM	4.32 µM					20.2 µM
COc1ccc(C(C2=C(O)CC(C)OC2=O)C2=C(O)CC(C)OC2=O)cc1 (stereo unspecified)		> 100 µM		> 100 µM	> 100 µM	> 100 µM													> 100 µM	
O=C(Nc1ccc(Cl)c(Cl)c1)c1ccc(NC2=C(Cl)C(=O)N(Cc3ccccc3)C2=O)cc1	7.68		44 µM	7.79 µM	4.41 µM		39.2 µM	5.62 µM	19.5 µM	2.82 µM				21.5 µM	2.3 µM	2.6 µM				18.8 µM
